EC50, CC50 and selectivity ratio data for nine compounds are collected here from ChEMBL document CHEMBL1909571, “Design, synthesis, and biological activity of a novel series of 2,5-disubstituted furans/pyrroles as HIV-1 fusion inhibitors targeting gp41” (Bioorg Med Chem Lett, 2011).

The nature of series [1]: Inhibition of HIV1 3B gp41-mediated fusion of infected human H9 cells to uninfected human MT2 cells by fluorescence assay. The class given is cell-based. Conditions: Human immunodeficiency virus 1, 3B.
The subject of series [2] is Human immunodeficiency virus. As to the kind of experiment: Antiviral activity against HIV 3B infected in MT2 cells assessed as inhibition of viral replication measuring p24 level by ELISA. The class given is functional, organism-based. Conditions: Human immunodeficiency virus 1, 3B.
Series [3] can be described thus: Inhibition of GP41 six-helix bundle formation in HIV 3B after 30 mins by FN-PAGE analysis. Also noted: species or system Human immunodeficiency virus 1.
A short description of series [4]: Cytotoxicity against human MT2 cells by XTT assay. The class given is cell-based. A general note: Tetrazolium assays rely on reduction of a dye to a coloured formazan, in cell work by metabolically active cells.
Series [5] is described as follows: Selectivity index, ratio of CC50 for human MT2 cells to EC50 for HIV 3B infected in MT2 cells. The series is classed as toxicity, cell-based. The note with it: read-out: Ratio CC50/EC50.

A value given as a limit tells only on which side of the number the result lay.

For the compound `O=C(O)c1cccc(-c2ccc(/C=C3\NC(=O)N(CCc4ccccc4)C3=O)[nH]2)c1`, the EC50 – broadly, the concentration at which the effect is half-maximal – was 35.9 µM in series [1], over 100 µM in series [2] and 3.05 µM in series [3]. For the same compound, the CC50 – broadly, the concentration at which the toxic effect on the cells reaches its halfway point – in series [4] came out at 75.2 µM.
In the case of `O=C(O)c1cc(-c2ccc(/C=C3\NC(=O)N(CCc4ccccc4)C3=O)o2)ccc1Cl`, the concentration giving a half-maximal response (EC50) in series [1] was over 100 µM; in series [2], 54.2 µM; in series [3] it was 19 µM. Besides, the selectivity ratio in series [5] stood at 1.5. The compound further showed a CC50 in series [4] of 78.5 µM.
Turning to `O=C(O)c1cc(-c2ccc(/C=C3\SC(=O)N(CCc4ccccc4)C3=O)o2)ccc1Cl`, the EC50 in series [1] was found to be 26.9 µM; in series [2] it was 15.1 µM; in series [3], 29.7 µM. In addition, the selectivity ratio in series [5] was 4.5. Also, in series [4], the CC50 is 68.2 µM.
In the case of `O=C(O)c1cccc(-c2ccc(/C=C3\CC(=O)N(CCc4ccccc4)C3=O)[nH]2)c1`, the EC50 in series [1], in series [2] and in series [3] was over 100 µM each time. In series [4], this compound showed a CC50 of 127 µM.
For `O=C(O)c1cc(-c2ccc(/C=C3\CC(=O)N(CCc4ccccc4)C3=O)[nH]2)ccc1Cl`, the concentration giving a half-maximal response (EC50) in series [1] was over 100 µM; in series [2], over 100 µM; in series [3], 5.5 µM. In addition, in series [4], the cytotoxic concentration (CC50) worked out at 74.1 µM.
On to `O=C(O)c1cc(-c2ccc(/C=C3\CC(=O)N(CCc4ccccc4)C3=O)o2)ccc1Cl`, for which the EC50 in series [1] was 43.6 µM; in series [2], 6.9 µM; in series [3] it was 15.6 µM. In series [5], the selectivity ratio is 17.2. In series [4], this compound came in with a CC50 of 118 µM.
Taken in the same sequence, the figures for `O=C(O)c1cc(-c2ccc(/C=C3\OC(=S)N(CCc4ccccc4)C3=O)o2)ccc1Cl` were 49.6 µM, 31 µM, 27.8 µM, 9.1 and 282 µM.
As to `O=C(O)c1cc(-c2ccc(/C=c3\sc4nc(=O)c(-c5ccccc5)nn4c3=O)o2)ccc1Cl`, the figures for the concentration for a half-maximal effect (EC50) in series [1], in series [2] and in series [3] were 45.9 µM, 16.8 µM and 12.9 µM, respectively. Besides, the selectivity ratio in series [5] was over 19.1. This compound also yielded a CC50 in series [4] of over 320 µM.
Turning to `O=C(O)c1cc(-c2ccc(/C=C3\SC(=S)N(CCc4ccccc4)C3=O)o2)ccc1Cl`, the EC50 worked out at 0.75 µM in series [1], 0.05 µM in series [2] and 1.27 µM in series [3]. Also, the selectivity ratio in series [5] was found to be 406. Besides, the CC50 in series [4] came out at 20.3 µM.
